Entries after “also recorded” stand apart in the source; their conditions may differ. Marks after values point to notes of the source that are not given here.
Key:
[1] = tested on: CD3+CD25+ cells in human PBMC; test: T lymphocyte activation (CD3+CD25+) in PHA-stimulated PBMC of asthma patients (Example 6); format: cell-based; settings: PHA 50 μg/ml, 24 hours; 10^−7 M
Experimental: Experiments were carried out to determine whether formulations based on the platelet activating factor receptor (PAFR) antagonist and free radical scavenger Ginkgolide B (GB) in combination with the antioxidant carotenoid astaxanthin (ASX) suppress T cell activation in the same dose range as two commonly-used antihistamines: cetirizine dihydrochloride (CTZ/Zyrtec) and azelastine ([…]). […] Results are reported as stimulation indices (SI) of % CD3+CD25+ cells in cultures treated with PHA alone to % CD3+CD25+ cells in each drug-supplemented culture. […] Subjects for this study included 12 patients diagnosed with atopic asthma, 7 male and 5 female, ranging in age from 21 to 40 years (mean 28±1.8 years). Disease duration ranged from 2 to 12 years. Atopy was defined on the basis of one or more positive skin prick tests to a range of 20 allergens. None of the patients had received systemic therapy for at least 6 weeks prior to blood collection. The mean serum IgE was 335 (170-480) IU/ml. Venous blood for each subject was collected in polyethylene tubes containing EDTA during a one hour morning time interval. PBMC were separated by Ficoll-paque (Pharmacia, Uppsala, Sweden) density gradient centrifugation. Cells were washed and suspended in RPMI 1640 medium (Gibco BRL, Gaithersburg, Md.) at density of 1×10^6 cells/ml. PBMC were stimulated with 50 μg/ml Phytohemaglutinin (PHA) (Sigma Immunopharmaceuticals, St. Lous Mo.), or PHA plus 10^-8-10^-5 M astaxanthin (Natural Alternatives International (NAI) Inc., San Marcos Calif.); or ginkgolide B 10^-8-10^-6 M (NAI San Marcos Calif.); or selected combinations of ASX plus GB. Comparison of ASX and GB effects on T cell activation were made with two other pharmacological agents with anti-asthmatic properties by treating cells with 10^-7-10^-4 M cetirizine dihydrochloride (Pfizer Pharmaceuticals, Norwich Conn.); or 10^-7-10^-4 M azalestine hydrochloride (Wallace Pharmaceuticals, Somerset N.J.), followed by evaluation of cultures for the same biological endpoints as ASX/GB-treated cells. Each reagent was added at the outset of a 24 hours culture period, followed by harvest of cellular fraction for immunophenotyping studies. […] Two-color Flow cytometry was conducted using a Coulter Epics XL automated flow cytometer (Coulter Scientific, Hialeah, Fla., USA). Isotypic controls for the monoclonal antibodies (mAb) used to detect antigens of interest were established for each cell preparation. Positive analysis regions for cells expressing specific surface markers were set against controls and specific binding of fluorophore-conjugated mAb was analyzed by cytofluorography according to standard methods recommended by the manufacturer. Lymphocyte subpopulations were identified by position on forward and side scatter plots and live-gated. Expression of each antigen was reported as percentage cells positive for a particular T cell subpopulation defined by expression of CD3 (T lymphocyte marker) plus CD25, plus or minus standard error. Statistical analysis was performed using an independent t-test. All statistical analyses were performed using the SPSS for Windows statistical package (Norusis/SPSS, Inc.). […] The capacity of formulations evaluated in this study to suppress immune activation was measured as a stimulation index (SI), defined as the ratio of […].

[2] = tested on: ovalbumin(OA)-induced asthma in guinea pigs; test: Ovalbumin-induced asthma in guinea pigs: inflammatory cells in BAL fluid; format: in vivo, guinea pig; settings: for Eosinophils / Macrophages / Neutrophils: BAL fluid 24 hours after OV challenge
Experimental: The effect combinations of vitamin C, astaxanthin, and ginkolide on asthma-associated disease parameters ovalbumin(OA)-induced asthma in guinea pigs was evaluated. Twenty-four hours following OA challenge, animals are sacrificed and numbers of inflammatory cells (eosinophils, neutrophils, macrophages) are measured in bronchoalveolar lavage (BAL) fluid; and cAMP and cGMP concentrations in the lung tissue. The experiments were carried out as follows. Male Hartley guinea pigs (250-350 g) were sensitized by intramuscular injections of 0.35 ml of a 5% (W/V) ovalbumin (OA)/saline solution into each thigh on days 1 and 4. Guinea pigs were ready for asthmatic challenge after 25 days of ovalbumin injection. Asthmatic challenge was carried out with ovalbumin aerosol, and bronchoalveolar lavage (BAL) was done 24 hours later. The numbers of eosinophils, neutrophils, and macrophages in the BAL fluid were counted. Twenty-four hours after the aerosol OA challenge, guinea pigs were killed by cervical dislocation and exsanguinated by severing the axillary arteries. Lungs were lavaged with 50 ml of DulBecco's phosphate-buffered saline (aliquots of 10 ml), which were aspirated after gentle chest massage. BAL fluid was centrifuged at 2200 rpm (1100×g) for 10 min, supernatant was aspirated, and pellets were resuspended in 5 ml 0.25% NaCl to lyse residual erythrocytes. This dispersion was centrifuged at 2200 rpm (1100×g) for 10 min, supernatant was aspirated, and pellets were resuspended 5 ml 0.9% NaCl. Total cell counts were done by hemocytometry using trypan blue stain. Slides were prepared on a Shandon Cytospin 2 (Pittsburgh, Pa.) at 300 rpm for 5 min, fixed and stained. Differential cell counts were done using standard morphologic criteria to classify cells as eosinophils, neutrophils, or macrophages, and the results were expressed in cell numbers. The dose-responsive effect of AX, EGb761, and vitamin C administered independently for suppression of asthma-associated parameters in allergen-induced, asthmatic guinea pigs was determined. Ibuprophen (IB) was used as the positive control. Concentration of inflammatory cells in bronchoalveolar lavage (BAL) fluid and levels of cAMP and cGMP in lung tissue were measured in guinea pigs 24 hours following challenge with OV. Data is reported as mean±SD of measurements taken in 6 animals per dosage cohort. *p<0.05 compared to corresponding values of OV antigen-challenged, drug-free control group. The dose-responsive effect of AX, EGb761, and vitamin C administered in combination for suppression of asthma-associated parameters in allergen-induced, asthmatic guinea pigs was determined. The combination of these three components was given each day for each guinea pig as a “cocktail”. Concentration of inflammatory cells in bronchoalveolar lavage (BAL) fluid and levels of cAMP and cGMP in lung tissue were measured in guinea pigs 24 hours following challenge with OV. Data is reported as mean±SD of measurements taken in 6 animals per dosage cohort. *p<0.05 compared to corresponding values of OV antigen-challenged, drug-free control group.

Structure (SMILES): CC1=C(/C=C/C(C)=C/C=C/C(C)=C/C=C/C=C(C)/C=C/C=C(C)/C=C/C2=C(C)C(=O)[C@@H](O)CC2(C)C)C(C)(C)C[C@H](O)C1=O [astaxanthin, 3,3′-dihydroxy-4,4′-diketo-B-carotene]
- SI (CD3+CD25+) [1]: 0.89±0.06
- Eosinophils ([2]; 5 mg/kg): 5.0 ± 0.7 cell × 10^6/animal
- Macrophages ([2]; 5 mg/kg): 9.6 ± 1.0 cell × 10^6/animal
- Neutrophils ([2]; 5 mg/kg): 5.4 ± 0.8 cell × 10^5/animal
- Eosinophils ([2]; 10 mg/kg): 4.6 ± 0.6 cell × 10^6/animal
- Macrophages ([2]; 10 mg/kg): 8.0 ± 0.8 cell × 10^6/animal
- Neutrophils ([2]; 10 mg/kg): 5.1 ± 0.6 cell × 10^5/animal
- Eosinophils ([2]; 30 mg/kg): 3.1 ± 0.5* cell × 10^6/animal
- Macrophages ([2]; 30 mg/kg): 3.7 ± 0.7* cell × 10^6/animal
- Neutrophils ([2]; 30 mg/kg): 3.3 ± 0.8* cell × 10^5/animal
- Eosinophils ([2]; 100 mg/kg): 2.4 ± 0.6* cell × 10^6/animal
- Macrophages ([2]; 100 mg/kg): 2.70 ± 0.7* cell × 10^6/animal
- Neutrophils ([2]; 100 mg/kg): 2.4 ± 0.5* cell × 10^5/animal
- Eosinophils ([2]; 200 mg/kg): 2.3 ± 0.5* cell × 10^6/animal
- Macrophages ([2]; 200 mg/kg): 2.6 ± 0.5* cell × 10^6/animal
- Neutrophils ([2]; 200 mg/kg): 2.0 ± 0.4* cell × 10^5/animal
- protection against OV-induced asthma ([2]; components used separately: 10 mg/kg AX, 200 mg/kg vit C, 10 mg/kg GB, listed as AX): failed to protect; also recorded: failed to reduce the severity of asthma

Reference: patent US20060127505A1, “Anti-inflammatory formulations” (priority 2002, published 2006)
